Assay results from PMC8402619 (Viruses, 2021).

Assays:
[1] = system: CYP1A2; experiment: CYP induction in cryopreserved human hepatocytes; details: positive control, 50 µM, 48 h, n = 3 donors
[2] = system: CYP2B6; experiment: CYP induction in cryopreserved human hepatocytes; details: positive control, 1000 µM, 48 h, n = 3 donors
[3] = molecular target: T1, BCRP (Homo sapiens, UniProt Q9UNQ0); experiment: Bidirectional transport across MDCKII and MDCKII-BCRP cell monolayers; format: in vitro ADME; set-up: expressed in transfected cells; host or cells: MDCKII; details: positive control substrate 1 µM, mean ± SEM
T1 sequence (Q9UNQ0 1-655): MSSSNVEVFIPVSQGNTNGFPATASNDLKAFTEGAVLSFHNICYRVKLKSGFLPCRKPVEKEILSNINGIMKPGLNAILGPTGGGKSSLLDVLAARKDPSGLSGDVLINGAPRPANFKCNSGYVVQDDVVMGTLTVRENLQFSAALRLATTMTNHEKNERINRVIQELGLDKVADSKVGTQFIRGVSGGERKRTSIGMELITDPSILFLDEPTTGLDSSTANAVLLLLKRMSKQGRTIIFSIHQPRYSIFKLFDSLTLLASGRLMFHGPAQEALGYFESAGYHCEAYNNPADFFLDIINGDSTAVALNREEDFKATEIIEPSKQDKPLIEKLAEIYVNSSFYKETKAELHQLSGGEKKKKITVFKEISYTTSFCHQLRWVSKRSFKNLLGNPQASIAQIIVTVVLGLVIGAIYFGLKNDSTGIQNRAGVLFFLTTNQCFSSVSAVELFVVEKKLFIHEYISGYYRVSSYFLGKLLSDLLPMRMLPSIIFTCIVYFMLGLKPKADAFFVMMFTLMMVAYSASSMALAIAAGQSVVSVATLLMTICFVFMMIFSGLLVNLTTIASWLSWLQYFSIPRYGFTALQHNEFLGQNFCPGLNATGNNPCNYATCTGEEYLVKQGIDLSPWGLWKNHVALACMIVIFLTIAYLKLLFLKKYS

COc1ccc2[nH]c([S+]([O-])Cc3ncc(C)c(OC)c3C)nc2c1 (stereo not shown) [Omeprazole, reference compound]
mRNA Mean Fold Change ± SD CYP1A2 [1]: 26.4 ± 8.6

CCC1(c2ccccc2)C(=O)NC(=O)NC1=O [Phenobarbitol, reference compound]
mRNA Mean Fold Change ± SD CYP2B6 [2]: 18.5 ± 1.9

COc1cc2nc(N3CCN(C(=O)c4ccco4)CC3)nc(N)c2cc1OC [prazosin, reference compound]
efflux ratio ([3]; dog, MDCK, untransfected control cells): 1 ± 0.09 | efflux ratio ([3]; human, BCRP-transfected monolayers): 14.9 ± 4.9
